For data set [1], the system named is Mycobacterium avium MA CNCTC My 330/88. The data set is described as follows: In vitro antimycobacterial evaluation. Type of data set: cell-based. The settings on record: IC90 value.
Data set [2] deals with Trichophyton mentagrophytes 445. The data set is described as follows: In vitro antifungal susceptibility testing (broth microdilution). Type of data set: cell-based. The settings on record: M38-A for moulds, IC50 value, read-out: MIC TM.
Data set [3] concerns photosynthetic electron transport (PET) in spinach chloroplasts. The data set can be described thus: Inhibition of photosynthetic electron transport (PET) in spinach chloroplasts. Type of data set: biochemical, Spinacia oleracea L. The settings on record: DCPIP photoreduction. The procedure:
Chloroplasts were prepared from spinach (Spinacia oleracea L.) according to Masarovicova and Kralova. The inhibition of photosynthetic electron transport (PET) in spinach chloroplasts was determined spectrophotometrically (Genesys 6, Thermo Scientific, USA), using an artificial electron acceptor 2,6-dichlorophenol-indophenol (DCIPP) according to Kralova et al., and the rate of photosynthetic electron transport was monitored as a photoreduction of DCPIP. The measurements were carried out in phosphate buffer (0.02 mol/L, pH 7.2) containing sucrose (0.4 mol/L), MgCl2 (0.005 mol/L) and NaCl (0.015 mol/L). The chlorophyll content was 30 mg/L in these experiments and the samples were irradiated (~100 W/m^2) from 10 cm distance with a halogen lamp (250 W) using a 4 cm water filter to prevent warming of the samples. The studied compounds were dissolved in DMSO due to their limited water solubility. […] The inhibitory efficiency of the studied compounds was expressed by IC50 values, i.e. by molar concentration of the compounds causing 50% decrease in the oxygen evolution rate relative to the untreated control.

Data set [4] deals with Mycobacterium tuberculosis MTB CNCTC My 331/88. The data set is described as follows: In vitro antimycobacterial evaluation. Type of data set: cell-based. The settings on record: IC90 value.
For data set [5], the system named is Mycobacterium kansasii MK CNCTC My 235/80. The data set can be described thus: In vitro antimycobacterial evaluation. Type of data set: cell-based. The settings on record: IC90 value.
The test system of the next data set is Candida tropicalis 156. The data set can be described thus: In vitro antifungal susceptibility testing (broth microdilution). Type of data set: cell-based. The settings on record: M27-A2 for yeasts, IC80 value. Background: Broth dilution looks for growth in wells or tubes with falling amounts of substance.
Data set [6] is described as follows: Lipophilicity determination by RP-HPLC (capacity factor k / log k). Type of data set: physicochemical. The settings on record: C18 column, MeOH 70% / H2O 30%, isocratic. On the procedure: Hydrophobicities (log P/Clog P) of compounds 8 and 9 were calculated using two commercially available programs (ChemOffice Ultra 10.0 and ACD/LogP) and measured by means of RP-HPLC determination of capacity factors k with subsequent calculation of log k. The procedure was performed under isocratic conditions with methanol as an organic modifier in the mobile phase using an end-capped non-polar C18 stationary RP column. The results are shown in Table 1 and illustrated in Figure 1.
A Waters Alliance 2695 XE HPLC separation module and a Waters Photodiode Array Detector 2996 (Waters Corp., Milford, MA, USA) were used. A Symmetry® C18 5 μm, 4.6 × 250 mm, Part No. WAT054275 (Waters Corp., Milford, MA, USA) chromatographic column was used. The HPLC separation process was monitored by Empower™ 2 Chromatography Data Software, Waters 2009 (Waters Corp., Milford, MA, USA). A mixture of MeOH p.a. (70%) and H2O-HPLC – Mili-Q Grade (30%) was used as a mobile phase. The total flow of the column was 1.0 mL/min, injection volume, 30 μL, column temperature, 30 °C and sample temperature, 10 °C. The detection wavelength of 210 nm was chosen. The KI methanolic solution was used for the dead time (tD) determination. Retention times (tR) were measured in minutes. The capacity factors k were calculated using the Empower™ 2 Chromatography Data Software according to formula k = (tR - tD)/tD, where tR is the retention time of the solute, whereas tD denotes the dead time obtained using an unretained analyte. Log k, calculated from the capacity factor k, is used as the lipophilicity index converted to log P scale.

In data set [7] the test system is Enterococcus sp. J 14365/08. The data set is described as follows: In vitro antibacterial susceptibility testing (broth microdilution). The settings on record: read-out: MIC EF.
Data set [8] relates to Staphylococcus epidermidis H 6966/08. The data set is described as above. The settings on record: read-out: MIC SE.
Data set [9] relates to methicilin resistant Staphylococcus aureus H 5996/08. The description is as above. The settings on record: MRSA, read-out: MIC MRSA.
The test system of data set [10] is Staphylococcus aureus CCM 4516/08. The description is as above. The settings on record: read-out: MIC SA.

Values after ≈ are worked out from the molar mass of the structure shown. Values joined by “and” are separate entries in the source; they are usually repeats but may differ in a detail not shown here. Identical values can stand only once. Like-named read-outs stand apart in the source and are kept apart here. Some results are limits rather than exact numbers.

Consider `O=C(N[C@@H](Cc1ccccc1)C(=O)Nc1ccc(Cl)cc1)c1cc(Cl)ccc1O` [8k], for which the MIC (commonly the lowest concentration that inhibits growth of the organism) in [1] (14h) was 32 µM (≈ 13.7 µg/mL); in data set [1] (21h), 32 µM (≈ 13.7 µg/mL); in [2] (72h) it was 125 µM (≈ 53.7 µg/mL); in data set [2] (120h), above 125 µM; in data set [4] (14h), 16 µM (≈ 6.87 µg/mL); in data set [4] (21h) it was 16 µM (≈ 6.87 µg/mL). Further, the MIC in data set [5] (14h) was 32 µM (≈ 13.7 µg/mL); in data set [5] (21h) it was 62.5 µM (≈ 26.8 µg/mL); in the data set on Candida tropicalis 156 (24h), 125 µM (≈ 53.7 µg/mL); in the data set on Candida tropicalis 156 (48h), above 125 µM; in data set [7] (SP.J14365/08, 24 h), above 500 µM; in data set [7] (SP.J14365/08, 48 h) it was above 500 µM. For the same compound, the MIC is above 500 µM in data set [8] (H6966/08, 24 h); above 500 µM in [8] (H6966/08, 48 h); above 500 µM in data set [9] (24 h); above 500 µM in data set [9] (48 h); above 500 µM in [10] (CCM4516, 24 h); above 500 µM in [10] (CCM4516, 48 h). The concentration for half-maximal inhibition (IC50) – broadly, the concentration that gives 50% inhibition – in data set [3] was 29.8 µM. Besides, the log k in data set [6] stood at 0.7394.

With `CC(C)[C@H](NC(=O)c1ccc(Cl)cc1O)C(=O)Nc1ccc(Cl)cc1` [9c], the MIC was 62.5 µM (≈ 23.8 µg/mL) in data set [1] (14h); 125 µM (≈ 47.7 µg/mL) in data set [1] (21h); above 125 µM in [2] (72h); above 125 µM in [2] (120h); 62.5 µM (≈ 23.8 µg/mL) in [4] (14h); 62.5 µM (≈ 23.8 µg/mL) in [4] (21h). Moreover, the minimum inhibitory concentration (MIC) in data set [5] (14h) was 62.5 µM (≈ 23.8 µg/mL); in [5] (21h), 62.5 µM (≈ 23.8 µg/mL); against Candida tropicalis 156 (24h) it was above 125 µM; against Candida tropicalis 156 (48h), above 125 µM; in data set [7] (SP.J14365/08, 24 h), above 500 µM; in data set [7] (SP.J14365/08, 48 h) it was above 500 µM. The MIC in data set [8] (H6966/08, 24 h) was above 500 µM; in [8] (H6966/08, 48 h), above 500 µM; in data set [9] (24 h) it was above 500 µM; in data set [9] (48 h), above 500 µM; in [10] (CCM4516, 24 h) it was above 500 µM; in [10] (CCM4516, 48 h) it was above 500 µM. In data set [3], this compound displayed an IC50 of 23.8 µM. In addition, the log k in data set [6] was determined as 0.6839.

Turning to `O=C(N[C@@H](Cc1ccccc1)C(=O)Nc1cccc(Cl)c1)c1cc(Cl)ccc1O` [8f, N-{(1S)-1-benzyl-2-[(3-chlorophenyl)amino]-2-oxoethyl}-5-chloro-2-hydroxybenz-amide], the MIC was 125 µM (≈ 53.7 µg/mL) in data set [1] (14h); 250 µM (≈ 107 µg/mL) in data set [1] (21h); 125 µM (≈ 53.7 µg/mL) in [2] (72h); 125 µM (≈ 53.7 µg/mL) in data set [2] (120h); 62.5 µM (≈ 26.8 µg/mL) in [4] (14h); 125 µM (≈ 53.7 µg/mL) in [4] (21h). Moreover, the MIC in data set [5] (14h) is 62.5 µM (≈ 26.8 µg/mL); in data set [5] (21h) it was 125 µM (≈ 53.7 µg/mL); against Candida tropicalis 156 (24h), 31.2 µM (≈ 13.4 µg/mL); in the data set on Candida tropicalis 156 (48h), 125 µM (≈ 53.7 µg/mL); in [7] (SP.J14365/08, 24 h) it was above 500 µM; in data set [7] (SP.J14365/08, 48 h), above 500 µM. The MIC was above 500 µM in data set [8] (H6966/08, 24 h); above 500 µM in data set [8] (H6966/08, 48 h); above 500 µM in data set [9] (24 h); above 500 µM in data set [9] (48 h); above 500 µM in [10] (CCM4516, 24 h); above 500 µM in data set [10] (CCM4516, 48 h). In [3], this compound displayed an IC50 of 12.3 µM. Also, the log k in data set [6] was 0.70 and 0.7098.

Take `CC(C)[C@H](NC(=O)c1cc(Cl)ccc1O)C(=O)Nc1cccc(Cl)c1` [8d]: the MIC in [1] (14h) is 125 µM (≈ 47.7 µg/mL); in data set [1] (21h), 125 µM (≈ 47.7 µg/mL); in data set [2] (72h), above 125 µM; in [2] (120h), above 125 µM; in data set [4] (14h), 32 µM (≈ 12.2 µg/mL); in data set [4] (21h), 62.5 µM (≈ 23.8 µg/mL). Also, the MIC in data set [5] (14h) is 62.5 µM (≈ 23.8 µg/mL); in [5] (21h), 125 µM (≈ 47.7 µg/mL); in the data set with Candida tropicalis 156 (24h), above 125 µM; with Candida tropicalis 156 (48h), above 125 µM; in [7] (SP.J14365/08, 24 h), above 125 µM; in [7] (SP.J14365/08, 48 h), above 125 µM. The MIC in [8] (H6966/08, 24 h) is above 125 µM; in data set [8] (H6966/08, 48 h) it was above 125 µM; in data set [9] (24 h), above 125 µM; in data set [9] (48 h), above 125 µM; in data set [10] (CCM4516, 24 h), above 125 µM; in data set [10] (CCM4516, 48 h), above 125 µM. The IC50 in data set [3] was 13.8 µM. The compound also returned a log k in data set [6] of 0.6124.

The values above are taken from PMC6259751, “Investigating Spectrum of Biological Activity of 4- and 5-Chloro-2-hydroxy-N-[2-(arylamino)-1-alkyl-2-oxoethyl]benzamides” (Molecules, 2011).
